In patent publication US20130116267A1 (priority 2010, published 2013):
Entries after “also recorded” stand apart in the source; their conditions may differ. Like-named read-outs stand apart in the source and are kept apart here.

Key:
PI3K p110 delta = PI3K p110 delta (Homo sapiens, UniProt O00329); settings: cited from earlier work
neutrophils = settings: read-out: IC50 in fMLP-induced elastase exocytosis from neutrophils; cited from earlier work
CD3-induced IL-2 release = settings: Lewis rats; cited from earlier work
[1] = test system: influenza virus strain PR8; assay type: cell-based
[2] = test system: H7N7 A/Equine/London/1416/73 influenza virus strain; assay type: in vivo; settings: wild type mice, 10×LD50 H7N7 London strain; vs vehicle only; FIG. 3B
HIV-1Ba-L = experiment: HIV-1 p24 levels in supernatants of infected PHA/IL-2-activated PBMC; assay type: cell-based; settings: n=4 donors, PBMC cultured with 1 μM, 10 μM or 50 μM, FIG. 4
[3] = test system: PHA-activated CD4+ T cells; experiment: CD25 expression on CD4+ T cells exposed to HIV-1 (flow cytometry); assay type: cell-based, human; settings: PHA-activated CD4+ T cells exposed to HIV-1; different concentrations, n=3; FIG. 6

Chain of PI3K p110 delta (O00329 whole entry): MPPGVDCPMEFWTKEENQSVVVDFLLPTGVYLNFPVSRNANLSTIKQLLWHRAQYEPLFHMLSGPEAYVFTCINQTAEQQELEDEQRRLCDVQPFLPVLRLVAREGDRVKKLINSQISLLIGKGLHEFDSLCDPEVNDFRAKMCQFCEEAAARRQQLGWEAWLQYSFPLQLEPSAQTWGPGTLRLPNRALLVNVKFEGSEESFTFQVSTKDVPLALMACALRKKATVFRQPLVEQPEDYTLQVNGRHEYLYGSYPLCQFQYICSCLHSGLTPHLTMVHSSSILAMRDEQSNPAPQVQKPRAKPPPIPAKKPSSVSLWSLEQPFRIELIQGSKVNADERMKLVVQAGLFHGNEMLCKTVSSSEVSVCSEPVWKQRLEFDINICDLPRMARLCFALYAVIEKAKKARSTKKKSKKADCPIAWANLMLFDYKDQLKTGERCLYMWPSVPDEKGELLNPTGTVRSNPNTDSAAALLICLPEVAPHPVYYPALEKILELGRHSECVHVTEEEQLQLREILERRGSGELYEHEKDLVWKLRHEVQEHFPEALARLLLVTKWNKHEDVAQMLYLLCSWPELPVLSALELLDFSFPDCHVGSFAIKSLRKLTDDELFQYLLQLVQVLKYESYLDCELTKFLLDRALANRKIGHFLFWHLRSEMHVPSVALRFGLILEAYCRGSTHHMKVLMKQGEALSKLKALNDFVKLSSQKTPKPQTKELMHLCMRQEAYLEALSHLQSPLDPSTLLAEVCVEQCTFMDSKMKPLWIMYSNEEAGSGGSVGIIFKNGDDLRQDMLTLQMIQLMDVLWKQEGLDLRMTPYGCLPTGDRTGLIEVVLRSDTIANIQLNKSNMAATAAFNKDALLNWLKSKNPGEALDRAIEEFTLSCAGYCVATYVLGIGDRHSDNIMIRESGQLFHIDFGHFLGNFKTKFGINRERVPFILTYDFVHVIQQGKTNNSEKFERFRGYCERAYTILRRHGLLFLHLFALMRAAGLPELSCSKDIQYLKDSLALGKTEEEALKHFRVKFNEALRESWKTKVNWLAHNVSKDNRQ
Chain of PI3K p110 delta (P27986 whole entry partner): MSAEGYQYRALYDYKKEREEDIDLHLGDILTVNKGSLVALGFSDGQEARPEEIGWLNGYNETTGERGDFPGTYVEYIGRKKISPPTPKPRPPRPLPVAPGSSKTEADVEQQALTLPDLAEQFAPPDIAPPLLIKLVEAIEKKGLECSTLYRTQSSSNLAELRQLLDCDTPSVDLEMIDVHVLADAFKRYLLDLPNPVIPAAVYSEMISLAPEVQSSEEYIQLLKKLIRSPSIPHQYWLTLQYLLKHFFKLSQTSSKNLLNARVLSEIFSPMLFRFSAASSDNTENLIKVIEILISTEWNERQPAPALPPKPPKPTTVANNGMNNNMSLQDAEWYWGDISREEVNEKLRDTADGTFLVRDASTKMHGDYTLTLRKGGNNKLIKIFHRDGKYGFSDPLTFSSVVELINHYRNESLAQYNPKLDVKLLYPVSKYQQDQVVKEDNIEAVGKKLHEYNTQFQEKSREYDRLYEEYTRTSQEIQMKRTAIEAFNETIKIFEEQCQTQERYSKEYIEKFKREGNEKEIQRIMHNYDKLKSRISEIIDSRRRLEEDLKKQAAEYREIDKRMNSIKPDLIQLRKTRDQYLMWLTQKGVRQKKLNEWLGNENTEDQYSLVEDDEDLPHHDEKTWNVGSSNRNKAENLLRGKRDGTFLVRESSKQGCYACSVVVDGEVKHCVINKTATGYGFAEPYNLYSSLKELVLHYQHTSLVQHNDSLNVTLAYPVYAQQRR

Question: Which IC50 (PI3K p110 delta; read-out: PI3K p110 delta IC50) does the source give for CC(c1nc2ccsc2c(=O)n1-c1ccccc1)n1cnc2c(N)ncnc21 (stereo not drawn) [Compound (IV), 2-(1-(6-amino-9H-purin-9-yl)ethyl)-3-phenylthieno[3,2-d]pyrimidin-4(3H)-one] here?
Answer: 40 nM

Question: With Cc1noc2nc(C(C)Sc3ncnc4[nH]cnc34)n(-c3ccccc3)c(=O)c12 (stereo not drawn) [Compound (V), 6-(1-((9H-purin-6-yl)thio)ethyl)-3-methyl-5-phenylisoxazolo[5,4-d]pyrimidin-4(5H)-one] as the compound, how does the IC50 (neutrophils) read?
Answer: 1200 nM

Question: Which IC50 (PI3K p110 delta; read-out: PI3K p110 delta IC50) does the source give for Cc1oc2ncn(CC(C)C)c(=O)c2c1C(=O)NCc1cccnc1 [Compound (VI), 3-isobutyl-6-methyl-4-oxo-N-(pyridin-3-ylmethyl)-3,4-dihydrofuro[2,3-d]pyrimidine-5-carboxamide] here?
Answer: 1200 nM

Question: Which “ED50 in a CD3-induced IL-2 release study” value (CD3-induced IL-2 release) does the source give for COCC(O)Cn1cc(-c2ccc3c(c2)N(c2nc4c(s2)C(=O)NC(C)(C)C4)CCO3)cn1 (stereo not drawn) [Compound (XXI), 2-(6-(1-(2-hydroxy-3-methoxypropyl)-1H-pyrazol-4-yl)-2H-benzo[b][1,4]oxazin-4(3H)-yl)-6,6-dimethyl-6,7-dihydrothiazolo[5,4-c]pyridin-4(5H)-one] here?
Answer: 5 mg/kg

Question: For Nc1nc(N)c2nc(-c3cccc4[nH]ccc34)cnc2n1 [Compound (XXIX), 6-(1H-indol-4-yl)pteridine-2,4-diamine], which IC50 (PI3K p110 delta; read-out: PI3K p110 delta IC50) is on record?
Answer: 64 nM

Question: Which IC50 (PI3K p110 delta; read-out: apparent PI3K p110 delta IC50) does the source give for COc1ncc(-c2ccc3nccc(-c4ccncc4)c3c2)cc1NS(=O)(=O)c1ccc(F)cc1F [Compound (XXXII), 2,4-difluoro-N-(2-methoxy-5-(4-(pyridin-4-yl)quinolin-6-yl)pyridin-3-yl)-benzenesulfonamide] here?
Answer: 0.024 nM

Question: Which results are given for Cc1ccccc1-n1c(Cn2cnc3c(N)ncnc32)nc2cccc(C)c2c1=O [IC87114, 2-[(6-amino-9H-purin-9-yl)methyl]-5-methyl-3-(o-tolyl)quinazolin-4(3H)-one]?
Answer: influenza virus replication [1]: inhibits influenza virus replication; viral mRNA production reduced compared to untreated cells ([1]; A549 epithelial cell line infected with influenza virus, FIG. 1B: 100 μM, PR8, MOI=0.01): ~25 fold; survival after lethal challenge [2]: increased survival; also recorded: protects mice lethally challenged; reduction of 48 hour HIV-1 p24 levels (HIV-1Ba-L): approximately 80%; CD25 expression [3]: not affected; survival of A549 cell (A549 cell): did not affect the survival
